Measurements from patent US11999782B2, “Therapeutic agents for the treatment of diseases associated with undesired cell proliferation” (Fundació Privada Institutció Catalana de Recerca I Estudis …, priority 2009, dated 2024).

Legend:
GBM neurospheres = test: Differentiation of GBM neurospheres (neuroprogenitor markers, adhesion); type: cell-based, human; details: 7 days without EGF or FGF; for adhesion to the culture plate / morphology versus control cells: GBM neurospheres, poly-L-lysine
Experimental: FIG. 7. TGFβ and LIF prevent the differentiation of GBM neurospheres. (A) Immunocytochemistry of the indicated proteins was performed in neurospheres derived from GBM1 treated with 100 pM TGFβ1 or 20 ng/ml LIF for 7 days in the absence of growth factors and the last 3 days on slides coated with poly-L-lysine. (B) The mRNA levels of Musashi-1 (Msi-1), Sox2 and Nestin were determined in GBM1 neurospheres after 7 days of the indicated treatments without growth factors. The RNA levels of 18S were used as an internal normalization control.
The immunocytochemistry of neurospheres and differentiated neurospheres was performed as described (Geshwind et al., 2001) using the following antibodies: anti-nestin (Chemicon), anti-GFAP (Dako), anti-TuJ1 (Chemicon), anti-04 (Chemicon), anti-Sox2 (Chemicon), anti-α-tubulin (Sigma). The nuclei were counterstained with 4′,6-diamino-2-phenylindole (DAPI).
(§1) qRT-PCR was performed using Taqman probes from Applied Biosystems, according to the manufacturer's recommendations. The reactions were carried out in a ABI 7000 sequence detector (Perkin Elmer) and the results were expressed as the fold change calculated by means of the DDCt method relative to the control sample or the first quantified sample. The ribosomal unit of 18S or β-actin were used as internal normalization controls.
The neurospheres derived from GBMs grown in the absence of growth factors and seeded in poly-L-lysine-coated plates tend to differentiate losing the expression of the neuroprogenitor markers Musashi-1, Sox2 and Nestin, and being adhered to the culture plate. It was decided to evaluate the effect of TGFβ and LIF on this differentiation process. The neurospheres were cultured in the presence of TGFβ or LIF without EGF or FGF for 7 days and subsequently processed for immunohistochemical staining and qRT-PCR assays for determining the levels of the neuroprogenitor markers Musashi-1, Sox2 and Nestin.

[1] = system: LIF expression in normal human neuroprogenitors; test: LIF mRNA in neurospheres of normal human neuroprogenitors; type: cell-based; details: 100 pM, 3 hours, compared with GBM neurospheres
Experimental: FIG. 8. Effect of TGFβ on the capacity of self-renewal of normal human neuroprogenitors. (A) Immunocytochemistry of the indicated markers was performed in human neuroprogenitor neurospheres. (B) Neurospheres of the sample of GBM1 and of human neuroprogenitors were incubated with the indicated members of the 100 pM TGFβ family for 3 hours and the mRNA levels of LIF were determined. (C, D) Neurosphere cells of normal human neuroprogenitors were incubated in the same conditions that have been described above in FIG. 1D in the presence of 100 pM TGFβ1 or 20 ng/ml LIF for 7 days and the number of newly formed neurospheres (C) and the number total of cells (D) were determined.
The U373MG and A172 cells were a generous gift from J. Rich and D. Bigner and were cultured in DMEM with 10% fetal bovine serum (FBS). The primary culture of tumor cells (PCTC) and the GBM neurospheres were generated as described (Bruna et al., (2007) Cancer Cell 11, 147-160; Gunther et al., (2008) Oncogene. May 1; 27(20):2897-909). Briefly, the samples of tumors were processed in the 30 minutes after the surgical resection. The ground pieces of the samples of human gliomas were digested with 200 U/ml collagenase I (Sigma) and 500 U/ml of DNase I (Sigma) in PBS for 2 hours at 37° C. and with constant vigorous stirring. The suspension of individual cells was filtered through a 70 μm cell filter (BD Falcon) and washed with PBS. […]
as §1, with “The ribosomal unit of 18S or β-actin were used as internal normalization controls.” left out
It was decided to assess whether this effect was specific to tumor cells or was also present in normal neuroprogenitor cells. […] First, it was determined if TGFβ induced LIF in normal human neuroprogenitors. […]

Substance | adhesion to the culture plate / morphology versus control cells (GBM neurospheres) | induction of LIF mRNA in normal human neuroprogenitor neurospheres [1] | expression of Musashi-1, Sox2 and Nestin (immunocytochemistry, qRT-PCR) (GBM neurospheres; GBM1 neurospheres, 100 pM TGFβ1 or 20 ng/ml LIF)
TGFβ: TGFβ1 (R&D Systems), used at 100 pM according to the figure legends | adhered less to the culture plate | did not induce LIF | 
LIF: recombinant leukemia inhibitory factor, an IL-6 type cytokine (Chemicon) | adhered less to the culture plate |  | maintained the expression
